The values below come from PubChem BioAssay (NCI).

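Five compound concentrations were applied to cells in 96-well plates for 48 hours; endpoints were derived by simple linear interpolation of the resulting dose-response curve. Definition used: TGI = concentration required for complete inhibition of growth.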

Some test systems named below: A498 renal; ACHN renal; BT-549 breast; DU-145 prostate; HCC-2998 colon; HCT-15 colon; HS 578T breast; MDA-MB-435; OVCAR-4 ovarian; PC-3 prostate; SW-620 colon; T-47D breast; DLD-1 colon; DMS 114 small cell lung; KM20L2 colon; M19-MEL melanoma; NCI/ADR-RES ovarian; SK-MEL-2 melanoma; SNB-78 CNS; M14 melanoma.
What all share (assay): NCI-60 cell line screen, 48 h

As for `C/C(=N\Nc1nc2cc(Cl)ccc2s1)c1ccccn1`, the TGI was greater than 22.6 µM with A498 renal; 13.4 µM with ACHN renal; greater than 61.3 µM in the assay on BT-549 breast; greater than 23.3 µM in the assay with DU-145 prostate; greater than 80.8 µM with HCC-2998 colon; greater than 79.9 µM in the assay with HCT-15 colon. Moreover, the TGI in the assay on HS 578T breast is greater than 100 µM; with MDA-MB-435, greater than 42 µM; in the assay on OVCAR-4 ovarian, greater than 100 µM; with PC-3 prostate it was greater than 35.2 µM; with SW-620 colon it was 23.7 µM; in the assay on T-47D breast it was 43.6 µM.

`CN(C)C(=O)Oc1c(Br)cc(Br)cc1C(=O)OCc1ccccc1`: the TGI with A498 renal is 71.4 µM; with DLD-1 colon, greater than 96.8 µM; with DMS 114 small cell lung, 53.1 µM; in the assay on HCC-2998 colon it was greater than 96.5 µM; in the assay on HCT-15 colon it was greater than 81.7 µM; in the assay on KM20L2 colon, 57.7 µM. Besides, the TGI in the assay with M19-MEL melanoma was 44.3 µM; with NCI/ADR-RES ovarian, 51.8 µM; with OVCAR-4 ovarian, greater than 100 µM; with SK-MEL-2 melanoma it was greater than 71.2 µM; in the assay with SNB-78 CNS, greater than 100 µM; with SW-620 colon it was greater than 100 µM.

In the case of `COC1/C=C/C=C(/C)Cc2cc(O)c(Cl)c(c2)N(C)C(=O)CC(OC(=O)C(C)C)C2(C)OC2C(C)C2CC1(O)NC(=O)O2` (stereo not drawn), the TGI is greater than 100 µM in the assay with ACHN renal; 49.4 µM with BT-549 breast; greater than 100 µM in the assay on HS 578T breast; greater than 100 µM in the assay with MDA-MB-435; less than 0.01 µM in the assay on OVCAR-4 ovarian; greater than 100 µM with PC-3 prostate. Moreover, the TGI is greater than 43.6 µM in the assay on SK-MEL-2 melanoma, greater than 100 µM in the assay on SW-620 colon and greater than 100 µM in the assay with T-47D breast.

For the compound `CCN1c2ccccc2NC(=S)c2c1n[nH]c2-c1ccccc1`, the TGI with ACHN renal is greater than 100 µM; with BT-549 breast, greater than 100 µM; in the assay on DU-145 prostate it was greater than 100 µM; with HCC-2998 colon it was 19.3 µM; in the assay on HCT-15 colon, 87.9 µM; with HS 578T breast, greater than 100 µM. Further, the TGI with M14 melanoma is greater than 100 µM; in the assay on MDA-MB-435, 52.5 µM; with NCI/ADR-RES ovarian it was 60.9 µM; in the assay on OVCAR-4 ovarian, greater than 100 µM; with PC-3 prostate, 84.6 µM; in the assay on SK-MEL-2 melanoma it was 60.1 µM. Besides, the TGI with SW-620 colon was determined as 84.7 µM; in the assay with T-47D breast, 74.5 µM.

With `CC(=O)C(=O)NC1/C=C(C)\C=C/C(O)C/C=C(C)\C=C/C(O)CC2OC(=O)C1(C)C(=O)C2C` (stereo not drawn), the TGI with A498 renal, in the assay on DLD-1 colon, in the assay with DMS 114 small cell lung, in the assay with HCC-2998 colon, in the assay on HCT-15 colon and in the assay on KM20L2 colon was greater than 100 µM each time. The TGI in the assay with M19-MEL melanoma, in the assay on NCI/ADR-RES ovarian, with OVCAR-4 ovarian, in the assay with SK-MEL-2 melanoma, in the assay with SNB-78 CNS and in the assay on SW-620 colon was greater than 100 µM in each case.

As for `CC1(C)OC[C@H](C(=N)OCc2ccccc2)O1`, the TGI with A498 renal, in the assay with ACHN renal, in the assay with DLD-1 colon, with DMS 114 small cell lung, in the assay with HCC-2998 colon and in the assay with HCT-15 colon was greater than 100 µM throughout. In addition, the TGI in the assay with KM20L2 colon, with M14 melanoma, in the assay on M19-MEL melanoma, with OVCAR-4 ovarian, in the assay with SK-MEL-2 melanoma and in the assay on SNB-78 CNS was greater than 100 µM each time. The compound also yielded a TGI in the assay with SW-620 colon greater than 100 µM.

For `O=C1CC(/C=C/c2ccco2)=C(O)C1=O`, the TGI turned out to be 34.3 µM in the assay with ACHN renal; 23.6 µM in the assay on BT-549 breast; 32.5 µM in the assay on DU-145 prostate; 31.9 µM with HCC-2998 colon; 31.9 µM in the assay with HCT-15 colon; 87.9 µM in the assay on HS 578T breast. Further, the TGI in the assay with M14 melanoma was 29.2 µM; with MDA-MB-435, 35.3 µM; in the assay with NCI/ADR-RES ovarian, greater than 100 µM; in the assay on OVCAR-4 ovarian it was 27.3 µM; with PC-3 prostate, 25.4 µM; with SK-MEL-2 melanoma, 35.1 µM. The values for the TGI with SW-620 colon and in the assay with T-47D breast were 31.6 µM and 35.8 µM, respectively.

As for `CCOC(=O)c1nc2ccc(OC)cc2c2c1Cc1ccccc1-2`, the TGI in the assay with ACHN renal, in the assay with DLD-1 colon, in the assay on DMS 114 small cell lung, with HCC-2998 colon, with HCT-15 colon and in the assay with KM20L2 colon was greater than 100 µM throughout. The TGI in the assay with M14 melanoma, with M19-MEL melanoma, in the assay with OVCAR-4 ovarian, with SK-MEL-2 melanoma, with SNB-78 CNS and in the assay with SW-620 colon was greater than 100 µM in each case.
